The results in this text go back to ChEMBL document CHEMBL1201862, “PubChem BioAssay data set” (2004).

Active and inactive are the calls of the source.

The target of one experiment is Cytochrome P450 3A4 (Homo sapiens, UniProt P08684). The settings on record: Potency.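 Note: confirmatory qHTS run detecting inhibitors and substrates of CYP3A4.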
Experiment [1] has as its target T1, Small ubiquitin-related modifier 1 (Homo sapiens, UniProt P63165). The experiment can be described thus: SUMO1 protein interaction blockers, potency – biochemical, fluorescence polarization, uHTS hits, dose response (AID 624382). It is filed as functional. The settings on record: read-out: IC50_Mean. Background: Fluorescence polarisation rises when a labelled molecule tumbles more slowly, as on binding a larger partner.

For experiment [2], the target named is T2, SUMO-activating enzyme (Homo sapiens, UniProt Q9UBT2). Briefly: blockers of SAE1/SAE2–UBC9 SUMO transfer – biochemical, HTRF, uHTS, primary screen (AID 2006). It is filed as protein-complex assay. Background: Time-resolved FRET reads energy transfer from a long-lived donor to a nearby acceptor.
For experiment [3], the target named is T2, SUMO-activating enzyme. The experiment can be described thus: blockers of UBC9-mediated SUMO conjugation – biochemical, AlphaScreen, SUMOylation inhibitor project, confirmation (AID 2018). It is filed as functional. In general terms: In Alpha technology, singlet oxygen from a donor bead excites a nearby acceptor bead.
Experiment [4] concerns the target 26S proteasome non-ATPase regulatory subunit 14 (Homo sapiens, UniProt O00487). The experiment can be described thus: inhibition of proteasome subunit RPN11 – biochemical, fluorescence polarization, uHTS hits, confirmation (AID 602368). It is filed as functional.
Experiment [5] has as its system Streptococcus sp. 'group A'. Briefly: Streptococcus pyogenes SK(-)GAS viability under kanamycin – luminescence, BacTiterGlo, confirmation, counter-screen for streptokinase expression inhibitor project, dose response (AID 1900). It is filed as functional, organism-based.
The target of another experiment is T3, Streptokinase A (Streptococcus pyogenes serotype M1, UniProt P10520).
T3 sequence (P10520 whole entry): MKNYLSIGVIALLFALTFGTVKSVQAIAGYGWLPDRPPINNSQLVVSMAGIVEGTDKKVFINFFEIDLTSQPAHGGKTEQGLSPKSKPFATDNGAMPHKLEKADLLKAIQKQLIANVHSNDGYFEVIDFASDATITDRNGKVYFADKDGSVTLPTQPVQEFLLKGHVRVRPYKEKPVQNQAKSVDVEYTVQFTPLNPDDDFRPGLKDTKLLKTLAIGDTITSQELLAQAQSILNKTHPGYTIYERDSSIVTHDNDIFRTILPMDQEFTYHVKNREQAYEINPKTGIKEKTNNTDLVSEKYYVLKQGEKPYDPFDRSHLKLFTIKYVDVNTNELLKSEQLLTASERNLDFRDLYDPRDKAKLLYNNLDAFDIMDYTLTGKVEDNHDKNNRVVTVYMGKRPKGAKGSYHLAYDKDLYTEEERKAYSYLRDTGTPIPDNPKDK
Briefly: viability-normalized secreted streptokinase activity reduction – plasminogen activation absorbance, OD405, dose response (AID 1914).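 Note: secreted streptokinase activity via plasminogen activation per viability signal from cell pellet.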 It is filed as functional, Streptococcus pyogenes M1 GAS.

The next experiment deals with Prothrombin (Bos taurus, UniProt P00735). Briefly: thrombin protease inhibitors – biochemical, fluorescence polarization, uHTS hits, dose response (AID 602369). It is filed as functional.
In the next experiment the test system is Streptococcus. Briefly: GAS UMAA2166 growth inhibition – luminescence, BacTiterGlo, counter-screen for streptokinase expression inhibitor project, dose response (AID 1915).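 Note: potency for reduction of bacterial viability or growth.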 It is filed as functional, organism-based.
In experiment [6] the target is T1, Small ubiquitin-related modifier 1. Briefly: SUMO1 protein-protein binding blockers, potency – biochemical, FRET, dose response (AID 624383). The class given is functional. The conditions noted are these: read-out: IC50_Mean.
The target in experiment [7] is 72 kDa type IV collagenase (Homo sapiens, UniProt P08253). The experiment can be described thus: Dose Response validation of uHTS RPN11 inhibitor hits using a MMP-2 Fluorescence assay. The class given is functional.
Experiment [8] has as its target G-protein coupled receptor 35 (Homo sapiens, UniProt Q9HC97). Briefly: inhibition of zaprinast-stimulated GPR35 beta-arrestin translocation – imaging, U2OS, beta-arrestin-GFP, zaprinast agonist, primary screen (AID 2058).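 Note: antagonist potency meaning inhibition of agonist-induced arrestin redistribution.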 The class given is functional.
Experiment [9] concerns the target T4, Neuropeptide Y receptor type 1 (Homo sapiens, UniProt P25929).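 Note: HEK293 cells with a CNG channel challenged with NPY then isoproterenol; potency as antagonist that reverses NPY suppression of cAMP signal.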
T4 sequence (P25929 whole entry): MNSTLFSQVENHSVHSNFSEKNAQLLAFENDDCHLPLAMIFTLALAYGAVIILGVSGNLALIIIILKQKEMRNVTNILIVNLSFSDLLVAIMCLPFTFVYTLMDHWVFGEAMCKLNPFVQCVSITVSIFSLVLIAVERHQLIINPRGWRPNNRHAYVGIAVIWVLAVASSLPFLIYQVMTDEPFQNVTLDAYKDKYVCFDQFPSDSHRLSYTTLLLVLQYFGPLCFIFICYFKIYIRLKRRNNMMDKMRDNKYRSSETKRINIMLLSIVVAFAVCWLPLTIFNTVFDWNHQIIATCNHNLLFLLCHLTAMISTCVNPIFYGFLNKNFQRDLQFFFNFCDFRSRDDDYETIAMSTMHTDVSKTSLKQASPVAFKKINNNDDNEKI
It is filed as functional.

Experiment [10] addresses T5, Neuropeptide Y receptor type 2 (Homo sapiens, UniProt P49146).
T5 sequence (P49146 whole entry): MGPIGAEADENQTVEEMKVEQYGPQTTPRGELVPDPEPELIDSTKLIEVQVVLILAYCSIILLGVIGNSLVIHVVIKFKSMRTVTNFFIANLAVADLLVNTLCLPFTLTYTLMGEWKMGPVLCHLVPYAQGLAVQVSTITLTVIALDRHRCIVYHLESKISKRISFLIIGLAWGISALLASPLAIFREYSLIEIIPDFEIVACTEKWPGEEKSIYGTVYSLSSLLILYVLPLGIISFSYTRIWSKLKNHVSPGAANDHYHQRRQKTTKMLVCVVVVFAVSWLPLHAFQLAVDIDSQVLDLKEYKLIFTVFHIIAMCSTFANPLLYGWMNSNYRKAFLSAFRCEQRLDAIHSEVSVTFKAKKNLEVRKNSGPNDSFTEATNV
The class given is functional, cell-based.

Experiment [11] can be described thus: alpha-synuclein stem-loop luciferase translation blockers – H4 neuroglioma cells, luminescence, confirmation (AID 1988). The class given is functional, cell-based.
The nature of experiment [12]: luciferase reporter signal reduction – luminescence, H4-C neuroglioblastoma cells, dose response (AID 2458).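 Note: H4 neuroglioblastoma cells stably carrying a luciferase reporter gene fusion.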 The class given is functional, cell-based.
A short description of experiment [13]: viability loss of HPDE-C7K cells – cell-based, fluorescence, HTS, primary screen (AID 431). The settings on record: Homo sapiens. The class given is functional.
In a further experiment the target is T6, Estrogen receptor (Homo sapiens, UniProt P03372).
T6 sequence (P03372 whole entry): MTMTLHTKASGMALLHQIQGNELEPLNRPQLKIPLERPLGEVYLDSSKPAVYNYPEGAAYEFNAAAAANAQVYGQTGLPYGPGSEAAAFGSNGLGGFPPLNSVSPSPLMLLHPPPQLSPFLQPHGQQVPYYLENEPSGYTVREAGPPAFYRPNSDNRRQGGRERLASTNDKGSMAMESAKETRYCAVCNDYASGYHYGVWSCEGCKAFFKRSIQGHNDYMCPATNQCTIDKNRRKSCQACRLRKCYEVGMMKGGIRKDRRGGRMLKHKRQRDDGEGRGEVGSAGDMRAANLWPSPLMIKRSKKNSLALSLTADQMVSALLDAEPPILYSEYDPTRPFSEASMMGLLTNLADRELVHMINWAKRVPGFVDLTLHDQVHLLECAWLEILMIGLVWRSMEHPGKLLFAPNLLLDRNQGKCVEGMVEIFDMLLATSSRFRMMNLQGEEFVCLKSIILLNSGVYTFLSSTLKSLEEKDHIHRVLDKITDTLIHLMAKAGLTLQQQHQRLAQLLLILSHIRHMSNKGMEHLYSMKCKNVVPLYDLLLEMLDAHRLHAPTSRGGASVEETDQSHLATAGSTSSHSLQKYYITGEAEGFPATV
The experiment can be described thus: ERα coactivator recruitment enhancers – biochemical, TR-FRET, ERα LBD, dose response (AID 737).

The nature of experiment [14]: HEK-293T viability loss after treatment – luminescence, T-cell screen hits, cytotoxicity control for TCR NF-kB inhibitor project, dose response (AID 489026).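 Note: cells exposed to compound about 14 hours before the viability readout.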 The class given is functional, cell-based.
A short description of a further experiment: cells. It is filed as functional, cell-based.
Experiment [15] can be described thus: alpha-synuclein stem-loop translation blockers – luminescence, H4 neuroglioblastoma cells, dose confirmation, confirmation (AID 2454).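 Note: H4 neuroglioblastoma cells carrying an alpha-synuclein 5'UTR luciferase reporter; potency for inhibition of the luciferase signal.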 It is filed as functional, cell-based.
Experiment [16] can be described thus: HPDE-C7 pancreatic duct cell viability loss – fluorescence, HTS (AID 430). It is filed as functional, cell-based. The conditions noted are these: Homo sapiens.
Experiment [17] is described as follows: Luminescence Cell-Based Dose Response HTS to Identify Inhibitors of 5'UTR Stem-Loop Driven Prion Protein mRNA Translation in H4 Neuroglioblastoma Cells. [Related pubchem assays: 1827 (Project Summary), 1813 (Primary HTS)]. The class given is functional.
Experiment [18] can be described thus: luciferase reporter signal suppression in cells – H4 neuroglioma cells, luminescence, dose response (AID 1990). The class given is functional, cell-based.
In experiment [19] the target is Melanin-concentrating hormone receptor 1 (Homo sapiens, UniProt Q99705). The experiment can be described thus: Late-stage fluorescence-based counterscreen for antagonists of the G-protein coupled receptor 7 (GPR7): cell-based dose response assay to identify antagonists of the melanin-concentrating hormone receptor 1 (MCHR1). [Related pubchem assays (depositor defined):AID1861, AID1880, AID1952, AID2148, AID2251, AID2257, AID485339]. It is filed as functional.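 Note: stimulated with 30 nM MCH peptide agonist.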

Experiment [20] in a line: Luminescence Cell-Based Dose Retest to Confirm Inhibitors of Cancer Stem Cells. [Related pubchem assays (depositor defined):AID2717, AID2721]. It is filed as functional. The conditions noted are these: Homo sapiens.
The target in experiment [21] is Neurotensin receptor type 1 (Homo sapiens, UniProt P30989). The class given is functional.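 Note: Image-based confirmatory dose-response assay measuring agonist activity at NTR1; NTR1-expressing U2OS osteosarcoma cells imaged for beta-arrestin GFP spot formation; agonist potency where compounds increase beta-arrestin recruitment.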
Neurotensin receptor type 1, sequence (P30989 whole entry): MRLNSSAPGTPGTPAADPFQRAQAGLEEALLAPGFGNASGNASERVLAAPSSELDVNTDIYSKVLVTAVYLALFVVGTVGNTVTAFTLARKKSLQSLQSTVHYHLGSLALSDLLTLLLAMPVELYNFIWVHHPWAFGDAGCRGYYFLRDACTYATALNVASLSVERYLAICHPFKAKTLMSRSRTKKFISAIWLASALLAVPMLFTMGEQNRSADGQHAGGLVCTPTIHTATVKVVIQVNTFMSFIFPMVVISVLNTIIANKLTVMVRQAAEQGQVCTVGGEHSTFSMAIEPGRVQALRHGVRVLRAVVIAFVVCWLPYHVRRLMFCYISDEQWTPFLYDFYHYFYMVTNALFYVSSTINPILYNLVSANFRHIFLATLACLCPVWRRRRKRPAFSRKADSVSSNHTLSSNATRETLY

T1 sequence (P63165 whole entry): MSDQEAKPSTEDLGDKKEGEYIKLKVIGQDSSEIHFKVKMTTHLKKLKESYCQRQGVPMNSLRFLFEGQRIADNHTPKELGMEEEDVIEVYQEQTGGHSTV
Cytochrome P450 3A4, sequence (P08684 whole entry): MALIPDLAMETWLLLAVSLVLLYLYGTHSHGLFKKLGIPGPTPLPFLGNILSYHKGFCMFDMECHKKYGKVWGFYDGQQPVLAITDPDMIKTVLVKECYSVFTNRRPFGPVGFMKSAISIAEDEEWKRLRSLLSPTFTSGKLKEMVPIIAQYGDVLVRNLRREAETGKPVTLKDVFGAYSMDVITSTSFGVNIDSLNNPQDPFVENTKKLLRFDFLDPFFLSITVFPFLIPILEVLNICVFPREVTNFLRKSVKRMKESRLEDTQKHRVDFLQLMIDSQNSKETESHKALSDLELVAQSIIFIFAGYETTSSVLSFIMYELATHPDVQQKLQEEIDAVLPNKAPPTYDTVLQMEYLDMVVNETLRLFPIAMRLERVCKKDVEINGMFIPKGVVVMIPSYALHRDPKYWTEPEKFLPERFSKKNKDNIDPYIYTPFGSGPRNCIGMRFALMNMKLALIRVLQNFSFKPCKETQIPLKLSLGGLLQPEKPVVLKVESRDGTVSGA
T2 sequence (Q9UBE0 whole entry): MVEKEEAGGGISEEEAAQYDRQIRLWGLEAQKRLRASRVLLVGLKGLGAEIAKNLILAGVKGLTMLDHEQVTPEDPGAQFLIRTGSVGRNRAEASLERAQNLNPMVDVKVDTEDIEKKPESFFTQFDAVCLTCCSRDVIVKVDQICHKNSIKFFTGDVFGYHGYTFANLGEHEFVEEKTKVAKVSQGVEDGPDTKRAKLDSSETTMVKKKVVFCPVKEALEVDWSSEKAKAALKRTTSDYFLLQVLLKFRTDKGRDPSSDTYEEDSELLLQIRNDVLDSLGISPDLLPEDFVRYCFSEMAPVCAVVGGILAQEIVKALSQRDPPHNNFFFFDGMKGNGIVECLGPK
T2 sequence (Q9UBT2 whole entry): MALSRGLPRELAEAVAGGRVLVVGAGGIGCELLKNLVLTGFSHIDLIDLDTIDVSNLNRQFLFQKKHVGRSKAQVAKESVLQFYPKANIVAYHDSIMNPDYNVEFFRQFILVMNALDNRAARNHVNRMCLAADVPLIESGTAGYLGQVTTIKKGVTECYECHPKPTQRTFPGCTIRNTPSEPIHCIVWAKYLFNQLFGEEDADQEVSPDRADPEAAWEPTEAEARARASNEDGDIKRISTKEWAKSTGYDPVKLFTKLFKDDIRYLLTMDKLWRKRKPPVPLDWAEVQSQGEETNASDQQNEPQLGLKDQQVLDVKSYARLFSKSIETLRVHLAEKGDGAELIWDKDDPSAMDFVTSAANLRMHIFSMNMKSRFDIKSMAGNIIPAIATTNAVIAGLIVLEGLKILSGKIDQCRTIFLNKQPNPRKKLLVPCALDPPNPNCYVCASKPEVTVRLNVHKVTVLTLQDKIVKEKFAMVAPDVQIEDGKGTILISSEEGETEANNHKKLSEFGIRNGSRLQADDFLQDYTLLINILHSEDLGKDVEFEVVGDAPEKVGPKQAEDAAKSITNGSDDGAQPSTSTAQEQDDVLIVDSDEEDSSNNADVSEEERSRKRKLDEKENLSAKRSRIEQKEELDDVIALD
26S proteasome non-ATPase regulatory subunit 14, sequence (O00487 whole entry): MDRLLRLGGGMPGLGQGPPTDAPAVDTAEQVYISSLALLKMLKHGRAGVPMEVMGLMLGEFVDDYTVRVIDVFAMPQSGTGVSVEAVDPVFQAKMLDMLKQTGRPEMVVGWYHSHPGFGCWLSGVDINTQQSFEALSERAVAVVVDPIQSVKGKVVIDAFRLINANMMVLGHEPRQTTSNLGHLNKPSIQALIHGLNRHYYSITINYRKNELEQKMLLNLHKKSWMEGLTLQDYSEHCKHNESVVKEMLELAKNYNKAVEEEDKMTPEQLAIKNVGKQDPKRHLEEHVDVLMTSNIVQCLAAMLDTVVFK
Melanin-concentrating hormone receptor 1, sequence (Q99705 whole entry): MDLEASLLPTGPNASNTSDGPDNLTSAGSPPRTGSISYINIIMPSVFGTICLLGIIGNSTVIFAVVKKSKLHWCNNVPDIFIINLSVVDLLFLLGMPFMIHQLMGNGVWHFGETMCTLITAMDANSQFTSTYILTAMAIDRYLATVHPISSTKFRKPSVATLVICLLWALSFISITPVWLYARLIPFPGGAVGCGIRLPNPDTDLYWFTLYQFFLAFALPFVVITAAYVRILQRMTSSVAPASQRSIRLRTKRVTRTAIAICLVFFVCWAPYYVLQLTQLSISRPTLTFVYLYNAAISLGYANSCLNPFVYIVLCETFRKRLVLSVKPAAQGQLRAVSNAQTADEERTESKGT
G-protein coupled receptor 35, sequence (Q9HC97 whole entry): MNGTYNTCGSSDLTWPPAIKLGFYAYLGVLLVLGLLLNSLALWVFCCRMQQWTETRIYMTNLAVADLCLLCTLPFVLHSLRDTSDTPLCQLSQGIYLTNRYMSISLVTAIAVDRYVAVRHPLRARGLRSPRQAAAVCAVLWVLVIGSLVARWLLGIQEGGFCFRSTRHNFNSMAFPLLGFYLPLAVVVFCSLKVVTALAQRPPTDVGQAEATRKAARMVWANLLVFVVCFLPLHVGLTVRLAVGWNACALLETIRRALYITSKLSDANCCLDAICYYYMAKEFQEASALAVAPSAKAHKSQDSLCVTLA
72 kDa type IV collagenase, sequence (P08253 whole entry): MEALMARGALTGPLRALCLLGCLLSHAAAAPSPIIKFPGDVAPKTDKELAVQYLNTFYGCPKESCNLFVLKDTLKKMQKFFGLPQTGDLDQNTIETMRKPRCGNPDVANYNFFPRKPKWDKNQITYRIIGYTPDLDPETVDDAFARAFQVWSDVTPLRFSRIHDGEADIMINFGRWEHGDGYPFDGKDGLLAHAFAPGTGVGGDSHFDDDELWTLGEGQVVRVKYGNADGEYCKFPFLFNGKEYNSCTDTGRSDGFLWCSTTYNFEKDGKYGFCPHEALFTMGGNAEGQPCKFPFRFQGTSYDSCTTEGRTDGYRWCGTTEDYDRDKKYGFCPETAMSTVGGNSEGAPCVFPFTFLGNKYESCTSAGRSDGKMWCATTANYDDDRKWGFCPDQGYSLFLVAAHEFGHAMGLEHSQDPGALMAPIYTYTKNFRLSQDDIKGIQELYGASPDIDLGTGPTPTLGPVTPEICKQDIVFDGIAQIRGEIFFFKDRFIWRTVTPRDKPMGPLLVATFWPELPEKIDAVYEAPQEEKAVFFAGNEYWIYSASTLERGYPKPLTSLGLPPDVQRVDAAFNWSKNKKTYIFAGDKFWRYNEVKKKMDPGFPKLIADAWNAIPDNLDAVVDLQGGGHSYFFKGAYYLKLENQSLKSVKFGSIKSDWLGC

In the case of `CC(=O)OC1CC2C(C)(C)C=CC(=O)[C@@]2(C)C2CC[C@@]3(C)C(c4ccoc4)OC(=O)C4OC43[C@]12C` (stereo not given in full), the AC50 on Cytochrome P450 3A4 was 15.8 µM (inconclusive).

As for `Sc1nnc(-c2cc(-c3ccccc3)[nH]n2)n1/N=C/c1cccc(Cl)c1`, the IC50 in [1] is > 66.6 µM (inactive); at SUMO-activating enzyme [2], 11.1 µM (active); on SUMO-activating enzyme [3] it was 3.34 µM (active); in experiment [4] it was 11.4 µM (active); at Prothrombin it was 33.8 µM (active); in experiment [6], 5.8 µM (active). In addition, the IC50 in experiment [7] is > 100 µM (inactive). Further, the EC50 is 16.7 µM (active) in experiment [5], > 150 µM (not active) on Streptokinase A and 84.4 µM (active) with Streptococcus.

For the molecule `CCOC(=O)c1c(-c2ccccc2)csc1NC(=O)/C(C#N)=C/c1ccc(O)c(OC)c1`, the IC50 in experiment [8] is 2.75 µM (active).

Take `CCCn1c(-c2ccc(F)cc2)nc2c(NCC3CCN(C)CC3)nc(C)nc21`: the AC50 on Cytochrome P450 3A4 is 15.8 µM (inconclusive).

As for `COC(=O)c1cc2occc2n1Cc1nc(-c2ccccc2Cl)oc1C`, the values for the IC50 in experiment [9] and in [10] were 7.7 µM (active) and 8.2 µM (active), respectively.

As to `CCN(CC)c1ccc(-c2nn3c(-c4ccccc4OC)nnc3s2)cc1`, the EC50 in [11] was < 0.1 µM (active); in experiment [12], 0.214 µM (active); in experiment [13] it was > 20 µM (not active); on Estrogen receptor it was 18.2 µM (active); in “cells” it was 0.346 µM (active); in [15] it was 0.17 µM (active). The EC50 was > 20 µM (not active) in [16]; 6.86 µM (active) in experiment [5]; > 150 µM (not active) on Streptokinase A; 8.94 µM (active) in [17]; < 0.1 µM (active) in experiment [18]; 8.67 µM (active) with Streptococcus. For the same molecule, the IC50 in experiment [14] was 49.9 µM (inactive).

Consider `COc1ccc(Oc2c(Cl)cnn(-c3cccc4c3CCCC4)c2=O)cc1`, for which the IC50 in experiment [19] is 4.1 µM (active).

Turning to `CCCCNc1c(-c2cccc(Sc3ccc(OC)cc3)c2)nc2ccccn12`, the AC50 in experiment [20] was 5.22 µM (active). In addition, the EC50 in [21] is 27.5 µM (inactive).

In the case of `COc1ccc(-c2[nH]nc3c2C(c2ccc(OC)c(OC)c2)N(c2ccccc2)C3=O)cc1` (stereo not given), the IC50 is 7.8 µM (active) in experiment [9] and 4.36 µM (active) in experiment [10].

Consider `Cc1cccc(NC(=O)c2nc[nH]c2C(=O)N[C@@H](Cc2ccccc2)C(=O)OC(C)(C)C)c1`, for which the values for the EC50 (on Streptokinase A; in [21]) were > 150 µM (not active) and 17.9 µM (active), respectively.

Broadly, the AC50 is the concentration giving half of the maximal activity seen. The EC50 is the concentration giving half of the maximal effect.
